# Assay results reported in patent publication USRE48267E1, “Variants of C-type natriuretic peptide” (priority 2009, dated 2020).
# Where a SMILES comes first, the peptide text is derived from it. Bridges are numbered along the chain shown (N, C = ends). The star is where a group is joined. MeO(CH2CH2O)23CH2CH2CO = COCCOCCOCCOCCOCCOCCOCCOCCOCCOCCOCCOCCOCCOCCOCCOCCOCCOCCOCCOCCOCCOCCOCCOCCC(=O)*
# What was measured:
# Recombinant human NEP = Recombinant human NEP (Homo sapiens, UniProt P08473); assay: in vitro NEP cleavage assay (disappearance of non-cleaved CNP variant)
# Sequence of Recombinant human NEP (P08473 whole entry): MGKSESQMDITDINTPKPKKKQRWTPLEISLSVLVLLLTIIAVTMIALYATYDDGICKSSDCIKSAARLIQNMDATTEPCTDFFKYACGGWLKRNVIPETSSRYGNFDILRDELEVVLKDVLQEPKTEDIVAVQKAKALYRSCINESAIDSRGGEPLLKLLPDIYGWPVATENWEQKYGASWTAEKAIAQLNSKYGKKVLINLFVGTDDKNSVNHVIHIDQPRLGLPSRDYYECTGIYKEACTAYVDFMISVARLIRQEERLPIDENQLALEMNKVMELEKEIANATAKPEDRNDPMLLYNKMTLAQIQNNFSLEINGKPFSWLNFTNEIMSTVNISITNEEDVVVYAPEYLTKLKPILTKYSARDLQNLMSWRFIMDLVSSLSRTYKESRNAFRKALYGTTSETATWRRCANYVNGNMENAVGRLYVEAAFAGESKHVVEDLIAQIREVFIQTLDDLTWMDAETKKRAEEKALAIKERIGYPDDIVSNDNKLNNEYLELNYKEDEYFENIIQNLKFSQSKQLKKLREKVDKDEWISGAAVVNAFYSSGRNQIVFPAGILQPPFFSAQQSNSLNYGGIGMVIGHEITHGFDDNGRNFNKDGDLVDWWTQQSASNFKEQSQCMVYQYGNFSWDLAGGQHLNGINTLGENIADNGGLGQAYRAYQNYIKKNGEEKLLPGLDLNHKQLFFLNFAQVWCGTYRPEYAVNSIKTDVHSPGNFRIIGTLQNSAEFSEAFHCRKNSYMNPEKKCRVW
# Outline: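 Recombinant human NEP (1 ug/mL final) incubated with 100 uM CNP variant in 0.1 M Tris, pH 7, at 37° C for various times, then quenched with EDTA (10 mM final) and heat. Samples reduced and analysed by HPLC and mass spectrometry. Half-life derived from loss of intact variant over time.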
# [1] = tested on: wild-type mouse femurs and tibias; assay: mouse organ culture model of endochondral bone growth, wild-type bones; conditions: for longitudinal growth of wild-type mouse femur ex vivo: 8 days
# Description: (§1) To determine the efficacy of CNP variants in stimulating longitudinal bone growth, CNP variants were tested in a mouse organ culture model of endochondral bone growth in wild-type mice and transgenic mice having a G380R mutation in the human FGFR-3 gene (FGFR3^wt/Ach heterozygote) which represent a mouse model of mild achondroplasia. In brief, the pharmacological activity of wild-type CNP22 and CNP variants was compared in an organ culture model of embryonic or neonatal mouse tibiae, isolated from wild-type and FGFR3^wt/Ach littermates. Overall bone growth and histological changes within the growth plate were assessed. Conditioned culture medium is also assessed for biomarkers of intracellular signaling (cGMP), cartilage metabolism (type II collagen, other collagens, aggrecan chondroitin sulfate), bone metabolism (bone alkaline phosphatase, osteocalcin, type I collagen [C-telopeptide, N-telopeptide]), and inflammation (interleukin-1, interleukin 6, interleukin-11).
# (§2) The efficacy of wtCNP22, CNP37 and PEO24-[…]22(K4R) (SEQ ID NO: 36) in stimulating longitudinal femoral growth was evaluated in the mouse organ culture model. For these experiments femora were isolated from 2-3 day old wild-type mice and cultured in alphaMEM supplemented with 0.2% BSA, 0.5 mM L-glutamine, 40 units penicillin/mL and 40 ug streptomycin/mL, for 8 days in the presence of vehicle, CNP22 or CNP variants. The treatment commenced at day 0 and was repeated every two days thereafter, as the medium was changed. Bones were measured prior to treatment and every two days thereafter, using a dissection microscope fitted with a 1 cm eye-piece reticule. Conditioned medium was used for biomarker analysis. At day 8 bones were fixed in 4% paraformaldehyde for 24 hr, decalcified in 5% formic acid for 24 hrs, dehydrated and embedded in paraffin. Bones were sectioned at 5 um (microns), which were then deparaffinized, rehydrated, and stained with Alcian Blue for 30 min (pH 2.5; MasterTech). Alcian Blue stains cartilage blue. Stained sections were visualized and photographed by brightfield microscopy. The thickness of the hypertrophic region of the growth plate cartilage was determined by image analysis.
# In addition to the distribution of CNP variants in the bone growth plate, the ex vivo effects of CNP37, CNP22 and vehicle on cells in the FGFR3^ach and wild-type growth plate, e.g., hypertrophic cell size and cellularity of proliferating zone, were also evaluated. Bone samples were prepared, including Alcian Blue staining, as described above. Images of the entire proximal growth plate were taken at 4× magnitude. The growth plate is divided into three zones, starting from the epiphyseal side of cartilage: the resting zone (individual small chondrocytes), proliferating zone (columns of stacked chondrocytes parallel to the long axis of the bone), and hypertrophic zone (large chondrocytes and thin septa between the chondrocytes). In these regions, measurements were made by ImageJ software, including the number of proliferating chondrocytes per column and the density of hypertrophic chondrocytes. […] The cell size of hypertrophic chondrocytes was calculated by 1 over determined cell density. […]
# Femurs and tibias were isolated from wild-type and FGFR3^ach mice as described above. […] On the eighth day, media was collected and analyzed for the biomarkers cGMP (cyclic guanosine 3′, 5′ cyclic monophosphate) and fragments of cleaved collagen type II, a cartilage-specific marker for cartilage turnover. […]
# [2] = tested on: FGFR3^ach mouse femurs and tibias; assay: mouse organ culture model of endochondral bone growth, FGFR3^ach bones
# Description: as §1, §2
# Furthermore, ex vivo distribution of CNP37 in the growth plate of FGFR3^ach mouse tibia was evaluated. Bone samples were prepared as described above. Paraffin sections were cut and heat fixed for 1 hour at 60° C. Antigen retrieval with 1% hyaluronidase at 37° C. (30 minutes) was followed by a 1 hour serum block (10% Normal Goat Serum). […]
# In addition to the distribution of CNP variants in the bone growth plate, the ex vivo effects of CNP37, CNP22 and vehicle on cells in the FGFR3^ach and wild-type growth plate, e.g., hypertrophic cell size and cellularity of proliferating zone, were also evaluated. […]
# FGFR3^ach mice = assay: bone growth biomarkers in FGFR3^ach mice; assay type: in vivo, mouse; conditions: 200 nmol/kg s.c. daily, Day 36
# Description: Plasma and serum were collected during the study. Harvested plasma was stored with 10× protease inhibitor at −80° C. until analysis. cGMP levels were measured 15 minutes post-injection on Day 36 from K2-ETDA plasma collection tubes. Fragments of cleaved collagen type II (cartilage-associated biomarkers), osteocalcin (bone-associated biomarker), and IgG (relating to immunogenicity) were measured from terminal bleed serum at the end of the study (Day 37). cGMP was measured using a commercially available ELISA kit (Cayman Chemical Co., Cat. No. 581021.1), cleaved collagen type II (Cartilaps) was measured using a commercially available kit from Immunodiagnostic Systems (Cat. No. 3CAL4000), and osteocalcin was measured using a commercially available kit from Biomedical Technologies Inc. (Stoughton, Mass.).
smiles,measurement,setting,value
CC[C@H](C)[C@@H]1NC(=O)[C@H](CCCNC(=N)N)NC(=O)[C@H](CC(=O)O)NC(=O)[C@H](CC(C)C)NC(=O)[C@H](CCCCN)NC(=O)[C@H](CC(C)C)NC(=O)CNC(=O)[C@H](Cc2ccccc2)NC(=O)[C@@H](NC(=O)CNC(=O)[C@H](CCCNC(=N)N)NC(=O)[C@H](CO)NC(=O)[C@H](CC(C)C)NC(=O)CNC(=O)[C@H](CCCNC(=N)N)NC(=O)[C@H](CCCNC(=N)N)NC(=O)[C@H](CC(N)=O)NC(=O)[C@H](C)NC(=O)CNC(=O)CCOCCOCCOCCOCCOCCOCCOCCOCCOCCOCCOCCOCCOCCOCCOCCOCCOCCOCCOCCOCCOCCOCCOCCOC)CSSC[C@@H](C(=O)O)NC(=O)CNC(=O)[C@H](CC(C)C)NC(=O)CNC(=O)[C@H](CO)NC(=O)[C@H](CCSC)NC(=O)[C@H](CO)NC(=O)CNC1=O [PEO24-GANRR-CNP22(K4R)] ({MeO(CH2CH2O)23CH2CH2CO}-GANRRGLSRGCFGLKLDRIGSMSGLGC-OH; disulfide 11-27),resistance to NEP cleavage (in words),Recombinant human NEP,completely resistant to NEP cleavage over the assay period of 160 minutes
same,cGMP levels in conditioned media,"[1]; ex-planted wild-type mouse femurs and tibias, day 8",large increase (p<0.01)
same,longitudinal growth of wild-type mouse tibia ex vivo,[1]; treated every two days,increased the longitudinal growth of the tibia compared to vehicle or CNP22
same,longitudinal growth of wild-type mouse femur ex vivo,[1]; treated every two days,the most effective
same,longitudinal growth of wild-type mouse femur ex vivo,"[1]; treated every two days, listed as PE024-GANRR-CNP22(K4R)",stimulated the growth of wild-type mouse femur
same,levels of cleaved collagen type II in conditioned media,[1]; wild-type mouse femurs,increased
same,levels of cleaved collagen type II in conditioned media,[2]; FGFR3^ach mouse femurs,significantly increased (p<0.05)
same,cGMP levels in conditioned media,"[2]; ex-planted FGFR3^ach mouse femurs and tibias, day 8",large increase (p<0.01)
same,longitudinal growth of FGFR3^ach mouse femur ex vivo,[2]; treated every two days,increased the longitudinal growth of FGFR3^ach mouse femur compared to vehicle
same,longitudinal growth of FGFR3^ach mouse tibia ex vivo,[2]; treated every two days,increased the longitudinal growth of the tibia compared to vehicle or CNP22
same,"cGMP plasma levels 15 minutes post-injection, compared to vehicle",FGFR3^ach mice,increase
